According to patent US20090275667A1, “USE OF ALLICIN AS PRESERVATIVE, AS DISINFECTANT, AS ANTIMICROBIAL OR AS BIOCIDAL AGENT” (Stone Island Holdings Ltd, priority 2003, published 2009):
Values after ≈ are worked out from the molar mass of the structure shown. Values joined by “and” are separate entries in the source; they are usually repeats but may differ in a detail not shown here. Equal values may be shown once.

Experiments:
[1] = tested on: protozoal parasite associated with Leishmaniasis; experiment: Confirmatory in vitro test against the Leishmaniasis parasite; assay type: cell-based, Leishmania; conditions: allicin 5.0 gm per litre
Source text: Confirmatory in vitro tests at the University of East London using allicin at a concentration of 5.0 gm per litre has killed the protozoal parasite associated with Leishmaniasis. Taken with extrapolation of the results from the laboratory studies described in PCT/GB2002/004309, we believe that allicin at a concentration of 5000 ppm has efficacy as an antiprotozoal agent.

[2] = tested on: Staph. Aureus; experiment: Zones of Inhibition against common chicken bacteria; assay type: cell-based; conditions: Staphylococcus aureus
[3] = tested on: Paenibacillus larvae subsp. larvae; experiment: MIC by broth microdilution, bee pathogens; assay type: cell-based; conditions: range 1000 ppm to 0.25 ppm
Source text: (§1) We tested allicia (Allisure™ Liquid) activity against several species of entomopathogenic bacteria (Paenibacillus larvae subsp. larvae, Paenibacillus larvae subsp. pulvifaciens) and fungi (Ascosphaera apis and Ascosphaera aggregata) using broth microdilution method to determine minimum inhibitory concentration (MIC) and the agar diffusion test (Kirby-Bauer) to determine zone of inhibition. Bacterial spores were isolated from the diseased honey bee larval samples. A small aliquot of heat-treated bacterial spores was suspended in 100 μl of phosphate buffered saline-pH 7.2 (PBS) and plated on semi-selective J. Agar medium, containing Nalidixic and Pipemidic acid (Alippi, A M (1995) Detection of Bacillus larvae spores in Argentinian honeys by using a semi-selective medium. Microbiologia 1995 11(3): 343-50; and Govan, V A; Allsopp, M H; Davison, S A (1999) PCR Detection Method for Rapid Identification of Paenibacillus larvae. Applied and Environmental Microbiology 65(5): 2243-2245.
(§2) The plates were incubated at 33° C. in air containing 6% CO2 and 95% RH. The initial species identification was based on morphological, biological and cultural characteristics. The bacterial culture was tested for a catalase reaction (Leboffe, M. J and Pierce, B e (1999) A photographic atlas for the microbiology laboratory. Morton Publishing Company. 254 pp). The bacterial colonies were characterized by shape, margins and color. Gram-positive stained smears (Gram-stain Reagents Kit, EMD Chemicals Inc., NJ) were examined for morphological identification of vegetative cells and spores.
(§3) DNA based PCR identification was performed to corroborate identification of the bacterial species. Bacterial cells from culture plates were added directly to 30 μl of PCR reaction. The PCR primers used in the reaction were based on the 16S RNA sequence to selectively amplify a fragment of 973 by unique to P. larvae (Govan et al., 1999). The PCR products were visualized by 0.8% agarose gel electrophoresis in TAE buffer and ethidium bromide staining. The reference strains of bacteria were used as a control in PCR reactions and were provided by the National Center for Agricultural Research, Peoria, Ill. P. l. larvae (NRRL B-3560, B-2605) and P. l. palvifaciens (NRRL B-3688, B-3685, B-3689, NRS-1687, P. alvei B383).
(§4) Positive controls contained the antibiotic Tylosin (Tylan® 50, Elanco Animal Health Inc., IN) and negative controls contained no antibiotics. […] The optical densities of cultures (OD 600) were recorded 24 h and 48 h post inoculation, depending on the growth rate of the microbial species. […] Minimum bactericidal concentration values (NBC) were determined for allicin by plating out 100 μl of bacterial cultures derived from the MIC assay. […]

[4] = tested on: Paenibacillus larvae subsp. pulvifaciens; experiment: MIC by broth microdilution, bee pathogens; assay type: cell-based; conditions: range 1000 ppm to 0.25 ppm
Source text: as §1, §2, §3, §4

[5] = tested on: Ascosphaera aggregata; experiment: Disk diffusion test (Kirby-Bauer), zone of inhibition; assay type: cell-based; conditions: 6 mm paper disc containing 250 μg of allicin
Procedure: (§5) Allicin (Allisure™ Liquid) was tested against bacterial and fungal pathogens using a standard disk diffusion method (per Norrell & Messley). The aliquots of bacterial or fungal spores (100 μl of approximately 10^8-10^9 spores/ml) were plated on Mueller-Hinton agar medium, 4.0 mm depth. The 6 mm paper discs containing 250 μg of allicin or 5 μg of tylosin (positive control) were placed in the center of each plate. Plates were incubated at 33° C. and 6% CO2 and a zone of inhibition was measured 24 h, 48 h or 76 h post inoculation depending on the microbial species. All experiments were replicated at least three times.

[6] = tested on: Ascosphaera apis; experiment: as above; assay type: cell-based; conditions: 6 mm paper disc containing 250 μg of allicin
Procedure: as §5

[7] = tested on: Paenibacillus larvae subsp. larvae; experiment: as above; assay type: cell-based; conditions: 6 mm paper disc containing 250 μg of allicin
Procedure: as §5

[8] = tested on: Paenibacillus larvae subsp. pulvifaciens; experiment: as above; assay type: cell-based; conditions: 6 mm paper disc containing 250 μg of allicin
Procedure: as §5

[9] = tested on: B. laterosporus; experiment: Investigation into bacteriostatic or bactericidal effects (Study 2); assay type: cell-based, Brevibacillus laterosporus; conditions: conclusion from subculture into fresh media
Procedure: Where there was no growth in a replicate, at the end of one week the culture was plated out for single colonies on the appropriate agar. This was to determine whether the test item had bactericidal activity, where all the bacterial cells are killed, or bacteriostatic action, where the cells are unable to replicate in the presence of the substance, but will grow when it is removed. A further test, where 0.5 ml of the broth was transferred into 4.5 ml fresh broth (giving a 1:10 dilution) was also undertaken. There would still be some Allicin in the broth, but it should be present at a low enough concentration for growth not to be affected. Where growth occurred in the absence of Allicin, the broth was examined microscopically and plated out for single colonies to confirm the identity of the bacterium.

For `C=CCS[S+]([O-])CC=C` (stereo not shown) [allicin, Allicin], the “killing of the protozoal parasite” value [1] was “killed”, the zone of inhibition at 166 ppm ([2]; 166 ppm (1:6 dilution)) was 0 mm and the zone of inhibition at 1000 ppm ([2]; 1000 ppm) was 32 mm. The MIC [3] was 350 µg/mL (≈ 2160 µM), the MIC [4] was 350 µg/mL (≈ 2160 µM) and the zone of inhibition [5] was 35-37 mm and 35-38 mm. For the same molecule, the zone of inhibition [6] was 31-35 mm, the zone of inhibition [7] was 45-50 mm and the zone of inhibition [8] was 24-26 mm. For the same molecule, the “bacteriostatic or bactericidal effect” value [9] was “did not kill all bacteria”.
